Measurements from US20230391824A1, “RATIONALE, DESIGN, SYNTHESIS AND VALIDATION OF A SMALL MOLECULE ANTICANCER AGENT” (priority 2021, published 2023).

Target: T1, LIN28B protein (Homo sapiens, UniProt Q6ZN17)
T1 construct: in a panel of endogenously LIN28 expressing cancer cell models; endogenous in cells; host or cells: YP-MEL, BT-12, BT-37, NT-2 (NTERA)
T1 sequence (Q6ZN17 1-250): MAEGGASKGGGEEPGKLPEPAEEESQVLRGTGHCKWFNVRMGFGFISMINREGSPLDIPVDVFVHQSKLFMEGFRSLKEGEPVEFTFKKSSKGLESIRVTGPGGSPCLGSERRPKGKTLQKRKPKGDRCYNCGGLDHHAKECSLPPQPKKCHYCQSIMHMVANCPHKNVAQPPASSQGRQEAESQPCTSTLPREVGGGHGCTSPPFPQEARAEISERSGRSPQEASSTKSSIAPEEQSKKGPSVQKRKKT
Experiment: Western blotting of Lin28B protein in cancer cell models
Type: cell-based
Settings: YP-MEL, BT-37, NT-2 cells; at the tested dosages
Description: FIG. 5: Compound of formula (I) mixture, containing the two isomers (P1+P2) causes significant reduction in Lin28A protein from 5 μM onwards, in a panel of endogenously LIN28 expressing cancer cell models. […] LIN28A and LIN28B expression profile in pediatric CNS cancer cell lines, 96-hr post-treatment with Compound of formula (I). SDS-PAGE on 10% polyacrylamide gel of total cell lysates from untreated cells harvested at 80-90% confluency. Samples loaded with volumes for 20 μg protein. LIN28A and LIN28B proteins were detected using the anti-LIN28A antibody (#8706; Cell Signaling Technology) and anti-LIN28B antibody (#11965; Cell Signalling Technology) at 1:2000 dilutions. T47D: adult breast cancer (LIN28A expressing); YPMEL: malignant melanoma derived from Neurocutaneous Melanosis (NCM) (Lin28A and Lin28B expressing); BT-12: pediatric atypical-teratoid rhabdoid tumor (AT/RT). […]
The proteins were extracted from the same samples as the RNA using the RIPA lysis buffer. […] The proteins were detected using the anti-Lin28A antibody (#8706; Cell Signaling Technology), anti-Lin28B antibody (#11965, Cell Signaling Technology) the anti-beta-actin antibody at respectively 1:2000, 1:2000 and 1:5000 dilutions.

## CC[C@H](C)[C@H](NC(=O)[C@H](Cc1ncc[nH]1)NC(=O)c1cccc(C(N)=O)c1)C(=O)Nc1ccc(O)c(-c2nc3ccccc3s2)c1 [Compound P1]
  Lin28B expression: remained unaltered
